Data published in the OPERA property sets (Mansouri et al. 2018).

Conditions: not given
For `Oc1c(Cl)cc(Cl)cc1Cl`, the log10 Koc (L/kg) was 3.03 and the ready biodegradability was “readily biodegradable”. For `CC1Cc2ccccc2O1` (configuration not stated), the boiling point was 198 °C. `Nc1ccc(S(=O)(=O)Nc2ccccn2)cc1` gave a melting point of 192 °C. `O=C(CCCN1CCN(c2ccccn2)CC1)c1ccc(F)cc1` gave a melting point of 74 °C. Work on `COCC(F)(F)C(F)C(F)(F)F` (configuration not stated) yielded a boiling point of 87.5 °C and a log10 vapour pressure (mmHg) of 1.79. With `O=CF` the boiling point was -26.5 °C, the log10 vapour pressure (mmHg) was 3.46 and the melting point was -142 °C. In the case of `O=C(O)CCCCCCCCCF`, the melting point is reported as 49 °C. With `COCCOC` the boiling point was 85 °C, the log10 vapour pressure (mmHg) was 1.68 and the melting point was -58 °C. `CCCC(=O)OCCOc1ccccc1` showed a boiling point of 251 °C. For `CCCB(O)O`, the melting point was 107 °C. Work on `C=C1CCC(C)CC1` yielded a boiling point of 122 °C. With `CC(=O)c1ccc(C)cc1C` the boiling point was 228 °C. `O=C1C=CC(=O)N1` showed a melting point of 94 °C.

Same assay, conditions: fish
Work on `Oc1c(Cl)cc(Cl)cc1Cl` yielded a log10 BCF of 1.94 and a log10 biotransformation half-life (days) of -0.57. Work on `Clc1ccc(-c2cc(Cl)c(Cl)c(Cl)c2Cl)c(Cl)c1` yielded a log10 biotransformation half-life (days) of 2.34.
